According to publication PMC10607100, “Anticancer and Antiphytopathogenic Activity of Fluorinated Isatins and Their Water-Soluble Hydrazone Derivatives” (International Journal of Molecular Sciences, 2023):
Where two headings read alike, the source gives them in different places.

Assays:
[1] = tested on: Micrococcus luteus B-109; assay: Agar-well diffusion, bactericidal activity; format: cell-based; settings: Micrococcus luteus
Summary of the method: (§1)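 Bacteria spread on agar (BP medium; GYCa for X. campestris; pH 7.2–7.4) with 6-mm wells, each receiving 150 μL compound solution. Cultures grown at 28 °C; growth-inhibition zone width measured after 36–40 h.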

[2] = tested on: Pectobacterium atrosepticum 1043; assay: Agar-well diffusion, bactericidal activity; format: cell-based; settings: Pectobacterium atrosepticum, 1043, 2 mM/L
Summary of the method: as §1

[3] = tested on: Pectobacterium carotovorum subsp. carotovorum MI; assay: Agar-well diffusion, bactericidal activity; format: cell-based; settings: Pectobacterium carotovorum, 2 mM/L
Summary of the method: as §1

[4] = tested on: Pseudomonas fluorescens EL-2.1; assay: Agar-well diffusion, bactericidal activity; format: cell-based; settings: Pseudomonas fluorescens, EL2.1, 2 mM/L
Summary of the method: as §1

[5] = tested on: Xanthomonas campestris B-610; assay: Agar-well diffusion, bactericidal activity; format: cell-based; settings: Xanthomonas campestris
Summary of the method: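 Agar-well diffusion on GYCa agar (pH 7.2–7.4) seeded with bacterial suspension; 150 μL compound solution placed in 6-mm wells. Inhibition zone width measured after 36–40 h incubation.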

[6] = tested on: five representative phytopathogens; assay: Agar-well diffusion, bactericidal activity over the panel of phytopathogens; format: cell-based
Summary of the method: as §1

[7] = tested on: Fusarium oxysporum IBPPM 543; assay: Mycelial radial growth inhibition; format: cell-based; settings: Fusarium oxysporum; for inhibition of growth at 1 µM: 1 nmol/mL; for inhibition of growth at 1 µM / inhibition of growth at 5 µM / inhibition of growth at 20 µM / inhibition of growth at 40 µM: read-out: Inhibition value, I (%); for inhibition of growth at 5 µM: 5 nmol/mL; for inhibition of growth at 20 µM: 20 nmol/mL; for inhibition of growth at 40 µM: 40 nmol/mL
Summary of the method: (§2)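 Compounds mixed into molten GPY agar at various concentrations; centre inoculated with a 5-mm mycelial plug from 10-day cultures and incubated at 27 °C. Colony diameter compared with untreated control until control plate was covered (usually 12 days); ≥4 replicates in two experiments.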

[8] = tested on: Phytophthora cactorum VKM F-985; assay: Mycelial radial growth inhibition; format: cell-based; settings: for inhibition of growth at 2 µM: 2 nmol/mL; for inhibition of growth at 2 µM / inhibition of growth at 3 µM / inhibition of growth / inhibition of growth at 40 µM / inhibition of growth at 50 µM: read-out: Inhibition value, I (%); for inhibition of growth at 3 µM: 3 nmol/mL; for inhibition of growth: 27 nmol/mL; for inhibition of growth at 40 µM: 40 nmol/mL; for inhibition of growth at 50 µM: 50 nmol/mL
Summary of the method: as §2

[9] = Table S3, read-out: Inhibition zone width (mm), not less
[10] = IBPPM543, 72 h, age of the fungus 3 days
[11] = IBPPM543, 120 h, age of the fungus 5 days
[12] = IBPPM543, 168 h, age of the fungus 7 days
[13] = IBPPM543, 216 h, age of the fungus 9 days
[14] = Phytophthora cactorum, 72 h, age of the fungus 3 days
[15] = Phytophthora cactorum, 120 h, age of the fungus 5 days
[16] = Phytophthora cactorum, 168 h, age of the fungus 7 days
[17] = Phytophthora cactorum, 216 h, age of the fungus 9 days

Question: Which results are given for O=C(C[n+]1ccccc1)NN=C1C(=O)N(Cc2ccccc2F)c2ccc(F)cc21.[Cl-] [Compound 5a, 1-(2-(2-(5-Fluoro-1-(2-fluorobenzyl)-2-oxoindolin-3-ylidene)hydrazinyl)-2-oxoethyl)pyridin-1-ium chloride]?
Answer: zone of inhibition at 2000 µM ([1]; B109, 2 mM/L, average of 3 experiments, read-out: width of the inhibition zone (mm), M. luteus): 4 mm; zone of inhibition at 2000 µM ([1]; B109, Table S3, 2 mM/L, read-out: Inhibition zone width (mm), not less): ≥ 4 mm; zone of inhibition at 2000 µM ([2]; average of 3 experiments, read-out: width of the inhibition zone (mm), P. atrosepticum): 6 mm; zone of inhibition at 2000 µM [2, 9]: ≥ 6 mm; zone of inhibition at 2000 µM ([3]; average of 3 experiments, read-out: width of the inhibition zone (mm), P. carotovorum subsp. carotovorum): 3 mm; zone of inhibition at 2000 µM [3, 9]: ≥ 3 mm; zone of inhibition at 2000 µM ([4]; average of 3 experiments, read-out: width of the inhibition zone (mm), Ps. fluorescens): 4 mm; zone of inhibition at 2000 µM [4, 9]: ≥ 4 mm; zone of inhibition at 2000 µM ([5]; B610, 2 mM/L, average of 3 experiments, read-out: width of the inhibition zone (mm), X. campestris): 3.5 mm; zone of inhibition at 2000 µM ([5]; B610, Table S3, 2 mM/L, read-out: Inhibition zone width (mm), not less): ≥ 3 mm; zone of inhibition at 2000 µM ([6]; 36 h, 2 mM solutions, dependent on the test system used, read-out: inhibition zone width (mm), range over the test systems): 3 to 6 mm; bactericidal activity ([6]; Table S2): moderate bactericidal activity; inhibition of growth at 1 µM [7, 10]: 34%; inhibition of growth at 5 µM [7, 10]: 39%; inhibition of growth at 20 µM [7, 10]: 41%; inhibition of growth at 40 µM [7, 10]: 52%; EC50 ([7]; IBPPM543, 120 h, day 5, read-out: EC50, µg/mL at Day 5, F. oxysporum): 13.8 µg/mL; inhibition of growth at 1 µM [7, 11]: 25%; inhibition of growth at 5 µM [7, 11]: 31%; inhibition of growth at 20 µM [7, 11]: 45%; inhibition of growth at 40 µM [7, 11]: 54%; inhibition of growth at 1 µM [7, 12]: 20%; inhibition of growth at 5 µM [7, 12]: 23%; inhibition of growth at 20 µM [7, 12]: 42%; inhibition of growth at 40 µM [7, 12]: 51%; inhibition of growth at 1 µM [7, 13]: 7%; inhibition of growth at 5 µM [7, 13]: 18%; inhibition of growth at 20 µM [7, 13]: 23%; inhibition of growth at 40 µM [7, 13]: 36%; antagonistic effect superior to that of N-cetylpyridinium chloride ([8]; 5 days of growth): 2.3 times; antagonistic effect superior to that of fludioxonil ([8]; 5 days of growth): 2.0 times; inhibition of growth at 2 µM [8, 14]: 26%; inhibition of growth at 3 µM [8, 14]: 32%; inhibition of growth [8, 14]: 40%; inhibition of growth at 40 µM [8, 14]: 47%; inhibition of growth at 50 µM [8, 14]: 52%; EC50 ([8]; Phytophthora cactorum, 120 h, day 5, read-out: EC50, µg/mL at Day 5, P. cactorum): 15 µg/mL; inhibition of growth at 2 µM [8, 15]: 20%; inhibition of growth at 3 µM [8, 15]: 32%; inhibition of growth [8, 15]: 44%; inhibition of growth at 40 µM [8, 15]: 53%; inhibition of growth at 50 µM [8, 15]: 62%; inhibition of growth at 2 µM [8, 16]: 15%; inhibition of growth at 3 µM [8, 16]: 28%; inhibition of growth [8, 16]: 31%; inhibition of growth at 40 µM [8, 16]: 43%; inhibition of growth at 50 µM [8, 16]: 45%; inhibition of growth at 2 µM [8, 17]: 8%; inhibition of growth at 3 µM [8, 17]: 19%; inhibition of growth [8, 17]: 25%; inhibition of growth at 40 µM [8, 17]: 36%; inhibition of growth at 50 µM [8, 17]: 38%; EC50, µg/mL at Day 5, P. cactorum ([8]; day 5): 15.12 µg/mL; melting point: 180 to 182 °C
